Laboratory results: publication PMC5845353, “The selective cathepsin K inhibitor MIV-711 attenuates joint pathology in experimental animal models of osteoarthritis” (Journal of Translational Medicine, 2018)
“And” between values parts separate entries of the source, which are not always exact repeats. Identical values can stand only once.

Columns and labels:
Format in all cases: in vivo
[1] = system: dogs subjected to partial medial meniscectomy; test: Dog partial medial meniscectomy study, osteophyte measurement and grades
Method: Osteophytes for each compartment were measured (basal endochondral ossification to surface of cartilage cap) and severity grades assigned according to the following: […]

[2] = system: rabbits subjected to anterior cruciate ligament transection (ACLT); test: Rabbit ACLT study, µCT osteophyte volume; conditions: 30 and 100 µmol/kg, data not shown
Method: Starting 1 week after sham operation or ACLT, animals were dosed daily for 7 weeks by oral gavage with either MIV-711 (synthesized by Medivir and given as a suspension in 1% Methocel A4C in water) or vehicle (1% Methocel A4C in water) at a dose volume of 4 mL/kg. The four treatment groups (n = 7 in each group) were: (1) sham + vehicle; (2) ACLT + vehicle; (3) ACLT + MIV-711, 30 µmol/kg (low dose) and (4) ACLT + MIV-711, 100 µmol/kg (high dose).
Femora and tibias from all animals were subjected to µCT scanning without and with contrast reagent, to visualize bone and cartilage, respectively. Samples were scanned on a high-resolution, volumetric µCT scanner (μCT40, ScanCo Medical, Zurich, CH). The image data was acquired with the following parameters: 36 μm isotropic voxel resolution at 300 ms exposure time, 2000 views and 1 frame per view. Each sample was scanned twice, once for acquiring bone data and once for soft tissue data. […] After the segmentation process, the voxel count associated with each of the regions of interest was calculated using VHLab. […] Cartilage thickness was calculated using SCIRun (Scientific Computing and Imaging Institute, University of Utah). The distance from the bone to the outer surface of the articulating cartilage was calculated. […] Similarly, the thickness and thickness map image of the subchondral bone was calculated. […]

[3] = system: dogs subjected to partial medial meniscectomy; test: Dog partial medial meniscectomy study, microscopic lesion width and depth ratio
Method: Measurements of width of total lesion of any type (chondrocyte death, cloning, fibrillation, proteoglycan loss) were taken across the tibial and femoral surfaces to give a total lesion width. Significant lesion width (matrix loss extending beyond superficial degeneration; i.e., lesions consisting of changes greater than just proteoglycan loss) was also determined in an attempt to convey possible treatment differences based on evaluation of more serious and permanent/irreversible cartilage matrix changes. Multiple depth measurements in areas of greatest lesion severity were taken for each of the 4 quadrants in each of the 3 anterior to posterior sections. These consisted of measurements taken from the surface (or estimated original surface when severe degenerative changes are present) to the point where cartilage appeared normal. A second measurement was taken in this same area to the depth of the tidemark so that the number expressed is a ratio of lesion depth vs. depth of tidemark. The mean values for each quadrant (medial to lateral) for the 3 anterior to posterior sections were determined as well as an overall mean for the joint. In this measurement, the minor changes consisting of proteoglycan loss only are not measured and only lesions with definite chondrocyte loss and sometimes fibrillation are included. This parameter should reflect a similar result to the significant width measurement as it is an indicator of beneficial effects on the more severe pathology.

[4] = dog, individual animals of MIV-711 group
[5] = dog, mean of zones, individual animals of MIV-711 group
[6] = dog, mean of zones, versus Vehicle
[7] = individual dogs of MIV-711 group, mean of the 4 quadrants
[8] = individual dogs of MIV-711 group, width of any cartilage lesion, mean of 3 sections
[9] = individual dogs of MIV-711 group, width of degeneration with score of 1 or greater

## C#C[C@@H]1CN(C(=O)[C@H](CC(C)C)NC(=O)c2ccc(-c3nc(N4CCN(C)CC4)sc3F)cc2)[C@@H]2C(=O)CO[C@H]12 [MIV-711]
[1]; MIV-711 group mean
  Osteophyte Score: 0.00
[1]; individual dogs of MIV-711 group
  Osteophyte Measure: 0 µm
[1]; individual dogs of MIV-711 group, mean of 3 sections
  Osteophyte Score: 0.00
[2]
  effect on osteophyte volumes in femur and tibia (µCT): not apparently affected
[3]; MIV-711 group mean
  Femur Cartilage Degeneration Width Sig: 994.3 µm
  Femur Cartilage Degeneration Width Total: 3661.0 µm
  Femur Mean DRAMC (Depth Ratio Any Matrix Change): 0.084
  Tibia Cartilage Degeneration Width Sig: 2105.6 µm
  Tibia Cartilage Degeneration Width Total: 7336.0 µm
  Tibia Mean DRAMC (Depth Ratio Any Matrix Change): 0.13
[3]; MIV-711 group vs vehicle
  % inhibition, Femur Cartilage Degeneration Width Sig: 11%
  % inhibition, Femur Cartilage Degeneration Width Total: 13%
  % inhibition, Femur Mean DRAMC: -9%
  % inhibition, Tibia Cartilage Degeneration Width Sig: 5%
  % inhibition, Tibia Cartilage Degeneration Width Total: 0%
  % inhibition, Tibia Mean DRAMC: 17%
[3]; dog, group Mean
  Femur Depth Ratio Any Matrix Change Zone 1: 0.15
  Femur Depth Ratio Any Matrix Change Zone 2: 0.13
  Femur Depth Ratio Any Matrix Change Zone 3: 0.05
  Femur Depth Ratio Any Matrix Change Zone 4: 0.01
  Tibia Depth Ratio Any Matrix Change Zone 1: 0.05
  Tibia Depth Ratio Any Matrix Change Zone 2: 0.31
  Tibia Depth Ratio Any Matrix Change Zone 3: 0.11
  Tibia Depth Ratio Any Matrix Change Zone 4: 0.04
[3]; [4]
  Femur Depth Ratio Any Matrix Change Zone 1: 0.08 and 0.07 and 0.01 and 0.42 and 0.19 and 0.10 and 0.09 and 0.22 and 0.50 and 0.06 and 0.23
  Femur Depth Ratio Any Matrix Change Zone 2: 0.13 and 0.16 and 0.00 and 0.36 and 0.08 and 0.10 and 0.01 and 0.06 and 0.09 and 0.48 and 0.05 and 0.24
  Femur Depth Ratio Any Matrix Change Zone 3: 0.04 and 0.03 and 0.00 and 0.33 and 0.01 and 0.02 and 0.21
  Femur Depth Ratio Any Matrix Change Zone 4: 0.00 and 0.01 and 0.02 and 0.06
  Tibia Depth Ratio Any Matrix Change Zone 1: 0.06 and 0.08 and 0.01 and 0.09 and 0.03 and 0.13 and 0.00 and 0.15 and 0.11
  Tibia Depth Ratio Any Matrix Change Zone 2: 0.28 and 0.23 and 0.35 and 0.24 and 0.27 and 0.36 and 0.39 and 0.22 and 0.47 and 0.33 and 0.30 and 0.19
  Tibia Depth Ratio Any Matrix Change Zone 3: 0.14 and 0.11 and 0.18 and 0.08 and 0.15 and 0.07 and 0.24 and 0.06 and 0.04 and 0.19 and 0.03 and 0.05
  Tibia Depth Ratio Any Matrix Change Zone 4: 0.05 and 0.04 and 0.00 and 0.07 and 0.06 and 0.01 and 0.03 and 0.02
[3]; dog, mean of zones, group Mean
  Femur Depth Ratio Any Matrix Change Mean: 0.08
  Tibia Depth Ratio Any Matrix Change Mean: 0.13
[3]; [5]
  Femur Depth Ratio Any Matrix Change Mean: 0.06 and 0.07 and 0.00 and 0.28 and 0.04 and 0.03 and 0.01 and 0.08 and 0.31 and 0.12
  Tibia Depth Ratio Any Matrix Change Mean: 0.13 and 0.11 and 0.17 and 0.09 and 0.15 and 0.16 and 0.07 and 0.14 and 0.20
[3]; [6]
  % inhibition, Femur Depth Ratio Any Matrix Change Mean: -9%
  % inhibition, Tibia Depth Ratio Any Matrix Change Mean: 17%
[3]; dog, versus Vehicle
  % inhibition, Femur Depth Ratio Any Matrix Change Zone 1: -39%
  % inhibition, Femur Depth Ratio Any Matrix Change Zone 2: 10%
  % inhibition, Femur Depth Ratio Any Matrix Change Zone 3: -12%
  % inhibition, Femur Depth Ratio Any Matrix Change Zone 4: 44%
  % inhibition, Tibia Depth Ratio Any Matrix Change Zone 1: 55%
  % inhibition, Tibia Depth Ratio Any Matrix Change Zone 2: -2%
  % inhibition, Tibia Depth Ratio Any Matrix Change Zone 3: 23%
  % inhibition, Tibia Depth Ratio Any Matrix Change Zone 4: 19%
[3]; [7]
  Femur Mean DRAMC (Depth Ratio Any Matrix Change): 0.04 and 0.06 and 0.07 and 0.00 and 0.28 and 0.03 and 0.01 and 0.08 and 0.31 and 0.12
  Tibia Mean DRAMC (Depth Ratio Any Matrix Change): 0.07 and 0.13 and 0.11 and 0.17 and 0.09 and 0.15 and 0.16 and 0.14 and 0.20
[3]; [8]
  Femur Cartilage Degeneration Width Total: 3885 µm and 4200 µm and 4410 µm and 630 µm and 5040 µm and 3780 µm and 2310 µm and 3990 µm and 5880 µm and 2730 µm and 3675 µm
  Tibia Cartilage Degeneration Width Total: 6405 µm and 6510 µm and 8190 µm and 7560 µm and 8400 µm and 7980 µm and 6195 µm and 6930 µm and 6615 µm and 7245 µm and 7770 µm
[3]; [9]
  Femur Cartilage Degeneration Width Sig: 0 µm and 735 µm and 1260 µm and 3465 µm and 200 µm and 968 µm and 420 µm and 1890 µm and 733 µm and 815 µm and 3360 µm and 1068 µm
  Tibia Cartilage Degeneration Width Sig: 1638 µm and 1890 µm and 2310 µm and 1470 µm and 2520 µm and 2205 µm and 1155 µm and 3150 µm and 1575 µm and 1218 µm and 2163 µm and 4515 µm and 1785 µm
